Source: ChEMBL document CHEMBL3885881, “DrugMatrix”

Species: Rattus norvegicus
Test: DrugMatrix - Regimen: Daily Repeat
Format: toxicity, organism-based, Sprague-Dawley
Parameters: regimen Daily Repeat, gender Male, age 6-8 weeks
Settings: in vivo, po, route oral GAVAGE, vehicle 100 % WATER; for ABSOLUTE BASOPHIL / ABSOLUTE EOSINOPHIL / ABSOLUTE LYMPHOCYTE / ABSOLUTE MONOCYTE / ABSOLUTE SEGMENTED NEUTROPHIL / BASOPHIL / EOSINOPHIL / ERYTHROCYTE COUNT / HEMATOCRIT / HEMOGLOBIN / LEUKOCYTE COUNT / LYMPHOCYTE / MEAN CORPUSCULAR HEMOGLOBIN / MEAN CORPUSCULAR HEMOGLOBIN CONCENTRATION / MEAN CORPUSCULAR VOLUME / MONOCYTE / NEUTROPHIL / NUCLEATED RED BLOOD CELLS / PLATELET COUNT: tissue Blood; for ALANINE AMINOTRANSFERASE / ALBUMIN / ALKALINE PHOSPHATASE / ASPARTATE AMINOTRANSFERASE / BLOOD UREA NITROGEN / CARBON DIOXIDE / CHLORIDE / CHOLESTEROL / CREATINE PHOSPHOKINASE / CREATININE / GLUCOSE / LACTATE DEHYDROGENASE / LIPASE / PHOSPHORUS / POTASSIUM / SODIUM / TOTAL BILIRUBIN / TOTAL PROTEIN / URIC ACID: tissue Plasma
[1] = 0 mg/kg, 72 h, dose level Control, time 3 day
[2] = 0 mg/kg, 120 h, dose level Control, time 5 day
[3] = 58 mg/kg, 72 h, dose level Low, time 3 day

Cc1cn([C@H]2C=C[C@@H](CO)O2)c(=O)[nH]c1=O [STAVUDINE] was tested, and the “ABSOLUTE BASOPHIL” value [1] was 0 CELLS/uL, the “ABSOLUTE EOSINOPHIL” value [1] was 0 CELLS/uL and the “ABSOLUTE LYMPHOCYTE” value [1] was 8482.5 CELLS/uL. The “ABSOLUTE MONOCYTE” value [1] was 63.83 CELLS/uL, the “ABSOLUTE SEGMENTED NEUTROPHIL” value [1] was 887 CELLS/uL and the BASOPHIL [1] was 0%. For the same compound, the EOSINOPHIL [1] was 0%, the “ERYTHROCYTE COUNT” value [1] was 5.49 x10E6/uL and the HEMATOCRIT [1] was 34.5%. The HEMOGLOBIN [1] was 13.33 G/DL, the “LEUKOCYTE COUNT” value [1] was 9.43 x10E3/uL and the LYMPHOCYTE [1] was 90.17%. For the same compound, the “MEAN CORPUSCULAR HEMOGLOBIN” value [1] was 24.3 pg, the “MEAN CORPUSCULAR HEMOGLOBIN CONCENTRATION” value [1] was 38.63 G/DL and the “MEAN CORPUSCULAR VOLUME” value [1] was 62.88 fL. For the same compound, the MONOCYTE [1] was 0.67%, the NEUTROPHIL [1] was 9.17% and the “NUCLEATED RED BLOOD CELLS” value [1] was 0.67 /100WBC. The “PLATELET COUNT” value [1] was 1022.83 x10E3/uL, the “ALANINE AMINOTRANSFERASE” value [1] was 50.5 u/L and the ALBUMIN [1] was 4.08 G/DL. For the same compound, the “ALKALINE PHOSPHATASE” value [1] was 368.33 u/L, the “ASPARTATE AMINOTRANSFERASE” value [1] was 87.5 u/L and the “BLOOD UREA NITROGEN” value [1] was 12.83 mg/dL. For the same compound, the “CARBON DIOXIDE” value [1] was 32.83 mmol/L, the CHLORIDE [1] was 99.67 MEQ/L and the CHOLESTEROL [1] was 79.67 mg/dL. For the same compound, the “CREATINE PHOSPHOKINASE” value [1] was 585 u/L, the CREATININE [1] was 0.22 mg/dL and the GLUCOSE [1] was 135.67 mg/dL. The “LACTATE DEHYDROGENASE” value [1] was 171 u/L, the LIPASE [1] was 9.5 u/L and the PHOSPHORUS [1] was 11.18 mg/dL. For the same compound, the POTASSIUM [1] was 6.25 MEQ/L, the SODIUM [1] was 144.87 MEQ/L and the “TOTAL BILIRUBIN” value [1] was 0.2 mg/dL. For the same compound, the “TOTAL PROTEIN” value [1] was 6.08 G/DL, the “URIC ACID” value [1] was 0.65 mg/dL and the “ABSOLUTE BASOPHIL” value [2] was 0 CELLS/uL. The “ABSOLUTE EOSINOPHIL” value [2] was 14.5 CELLS/uL, the “ABSOLUTE LYMPHOCYTE” value [2] was 7596.17 CELLS/uL and the “ABSOLUTE MONOCYTE” value [2] was 69.67 CELLS/uL. For the same compound, the “ABSOLUTE SEGMENTED NEUTROPHIL” value [2] was 503 CELLS/uL, the BASOPHIL [2] was 0% and the EOSINOPHIL [2] was 0.17%. The “ERYTHROCYTE COUNT” value [2] was 5.49 x10E6/uL, the HEMATOCRIT [2] was 34.72% and the HEMOGLOBIN [2] was 13.47 G/DL. For the same compound, the “LEUKOCYTE COUNT” value [2] was 8.18 x10E3/uL, the LYMPHOCYTE [2] was 92.17% and the “MEAN CORPUSCULAR HEMOGLOBIN” value [2] was 24.57 pg. For the same compound, the “MEAN CORPUSCULAR HEMOGLOBIN CONCENTRATION” value [2] was 38.82 G/DL, the “MEAN CORPUSCULAR VOLUME” value [2] was 63.3 fL and the MONOCYTE [2] was 1%. The NEUTROPHIL [2] was 6.67%, the “NUCLEATED RED BLOOD CELLS” value [2] was 0 /100WBC and the “PLATELET COUNT” value [2] was 1141 x10E3/uL. The “ALANINE AMINOTRANSFERASE” value [2] was 48.33 u/L, the ALBUMIN [2] was 4.07 G/DL and the “ALKALINE PHOSPHATASE” value [2] was 395.67 u/L. The “ASPARTATE AMINOTRANSFERASE” value [2] was 85.67 u/L, the “BLOOD UREA NITROGEN” value [2] was 15.83 mg/dL and the “CARBON DIOXIDE” value [2] was 31.33 mmol/L. The CHLORIDE [2] was 100.83 MEQ/L, the CHOLESTEROL [2] was 62.33 mg/dL and the “CREATINE PHOSPHOKINASE” value [2] was 248.33 u/L. The CREATININE [2] was 0.2 mg/dL, the GLUCOSE [2] was 135.67 mg/dL and the “LACTATE DEHYDROGENASE” value [2] was 141.33 u/L. For the same compound, the LIPASE [2] was 9.5 u/L, the PHOSPHORUS [2] was 10.73 mg/dL and the POTASSIUM [2] was 6.07 MEQ/L. For the same compound, the SODIUM [2] was 145.35 MEQ/L, the “TOTAL BILIRUBIN” value [2] was 0.22 mg/dL and the “TOTAL PROTEIN” value [2] was 6.12 G/DL. For the same compound, the “URIC ACID” value [2] was 0.63 mg/dL, the “ABSOLUTE BASOPHIL” value [3] was 0 CELLS/uL and the “ABSOLUTE EOSINOPHIL” value [3] was 22.67 CELLS/uL. The “ABSOLUTE LYMPHOCYTE” value [3] was 7881 CELLS/uL, the “ABSOLUTE MONOCYTE” value [3] was 172.33 CELLS/uL and the “ABSOLUTE SEGMENTED NEUTROPHIL” value [3] was 1024 CELLS/uL. The BASOPHIL [3] was 0%, the EOSINOPHIL [3] was 0.33% and the “ERYTHROCYTE COUNT” value [3] was 5.09 x10E6/uL. The HEMATOCRIT [3] was 32.43%, the HEMOGLOBIN [3] was 12.77 G/DL and the “LEUKOCYTE COUNT” value [3] was 9.1 x10E3/uL. For the same compound, the LYMPHOCYTE [3] was 86.67%, the “MEAN CORPUSCULAR HEMOGLOBIN” value [3] was 25.1 pg and the “MEAN CORPUSCULAR HEMOGLOBIN CONCENTRATION” value [3] was 39.37 G/DL. The “MEAN CORPUSCULAR VOLUME” value [3] was 63.77 fL, the MONOCYTE [3] was 2% and the NEUTROPHIL [3] was 11%. The “NUCLEATED RED BLOOD CELLS” value [3] was 1 /100WBC, the “PLATELET COUNT” value [3] was 1073 x10E3/uL and the “ALANINE AMINOTRANSFERASE” value [3] was 58.67 u/L. For the same compound, the ALBUMIN [3] was 4.17 G/DL, the “ALKALINE PHOSPHATASE” value [3] was 410.33 u/L and the “ASPARTATE AMINOTRANSFERASE” value [3] was 82.67 u/L. The “BLOOD UREA NITROGEN” value [3] was 12 mg/dL, the “CARBON DIOXIDE” value [3] was 33 mmol/L and the CHLORIDE [3] was 99 MEQ/L. For the same compound, the CHOLESTEROL [3] was 75 mg/dL, the “CREATINE PHOSPHOKINASE” value [3] was 267 u/L and the CREATININE [3] was 0.33 mg/dL. For the same compound, the GLUCOSE [3] was 133.33 mg/dL, the “LACTATE DEHYDROGENASE” value [3] was 130.33 u/L and the LIPASE [3] was 10 u/L. It also gave a PHOSPHORUS [3] of 11.33 mg/dL, a POTASSIUM [3] of 6.27 MEQ/L and an SODIUM [3] of 145.07 MEQ/L. For the same compound, the “TOTAL BILIRUBIN” value [3] was 0.23 mg/dL, the “TOTAL PROTEIN” value [3] was 6 G/DL and the “URIC ACID” value [3] was 0.77 mg/dL.
